Test results as given in US20090298077A1, “ASSAY FOR MEASUREMENT OF APURINIC/APYRIMIDINIC (AP) SITES AND FOR SCREENING AP-SITE REACTIVE COMPOUNDS” (priority 2006, published 2009).
Where “and” joins values, the source holds several entries; their conditions need not be identical. Identical values can stand only once.

Legend:
AP-DNA [1] = assay: FARP AP-site assay: screening of MX-like compounds in competition with FARP; format: binding, calf; conditions: 100 nM AP-DNA
Protocol: (§1) 100 μL of 5 μM FARP in phosphate buffer (10 mM, pH 7.0) was added to 200 μL phosphate buffer (10 mM, pH 7.0) containing 10 μg of DNA extracted from cells, individual AP-DNA standard (10, 20, 40, 80, 160, 320, and 640 nM AP), and blank AP-DNA control, respectively. After vortexing, the reaction was allowed to proceed at room temperature for 15 min. At the end of the reaction 200 μL ammonium acetate (7.5M) and 1000 μL ice-cold ethanol (100%) were added. The solution was mixed gently by inverting the tube before keeping it at −20° C. for 30 min. Each tube was centrifuged at 4° C. and 12,000 g for 10 min. The supernatant was poured out carefully so that no loss of FARP-AP-DNA took place. 1200 μL of ice-cold ethanol (70%) was added to each tube to remove the free FARP by centrifugation at 4° C. and 12,000 g for 10 min. This washing step with 70% ice-cold ethanol was repeated two more times. After discarding the supernatant, the FARP-AP-DNA precipitate in the tube was dried at room temperature for 30 min. in a venting hood. The FARP-AP-DNA precipitate was hydrated and resuspended in 200 μL of phosphate buffer (10 mM, pH 9.0) at room temperature for 1 hr. The fluorescence intensity of the resultant FARP-AP-DNA solution was measured by the FluoroMax-2 spectrofluorometer. A calibration curve could be constructed by plotting the fluorescence intensity versus the concentration of AP sites.
One important application of the FARP AP-site assay developed is to screen MX-like compounds for their reactivity to AP site based on known chemical structures. In this work, four compounds with aminooxy or hydrazone group (i.e., MXL1O1, MXLIO2, MXLI 03, and MXL 104) together with MX were tested. The detail experiment included mixing equal concentration and volume of each individual test compound with FARP (50 μM in 100 μL of 10 mM phosphate buffer at pH 7.0) before reacting with 200 µL of 100 nM AP-DNA. The remaining experimental procedures were the same as described in the Experimental section. The data of fluorescence intensity reduced by MX and MX-like compounds were given in Table XI and the fluorescence intensity of the test compounds were compared in FIG. 19.

AP-DNA [2] = assay: Reversibility study of the condensation reaction between FARP / MX and AP-DNA; format: binding, calf; conditions: result in words, under the assay conditions
Protocol: It was known that the aldehyde group of an AP site could easily condense with aminooxy or hydrazone nucleophiles. However, the reversibility of the reaction was not clear, especially in the presence of another competing nucleophile. To clarify the above, two experiments were designed and carried out as follows: (a) FARP (50 μM in 100 μL of 10 mM phosphate buffer at pH 7.0) reacted with AP-DNA (125 nM in 200 μL of 10 mM phosphate buffer at pH 7.0) for 1 hr, after washing the condensation product (FARP-AP-DNA) incubated with MX (50 μM in 100 μL of 10 mM phosphate buffer at pH 7.0) for various time periods; and (b) MX (50 μM in 100 μL of 10 mM phosphate buffer at pH 7.0) reacted with AP-DNA (125 nM, 200 μL) for 1 hr, after washing the condensation product (MX-AP-DNA) incubated with FARP (50 μM in 100 μL of 10 mM phosphate buffer at pH 7.0) for various time periods.

SW480 colon cancer cells [3] = assay: ARP assay of AP sites in DNA from drug-treated SW480 cells; format: cell-based; conditions: 2 hrs at 37° C., MX 12.5 mM where combined
Text: (§2) An ARP method modified for the slot-blot vacuum filter device was used in this work. […]

SW480 colon cancer cells [4] = assay: FARP assay of AP sites in DNA from drug-treated SW480 cells; format: cell-based; conditions: 2 hrs at 37° C., MX 12.5 mM where combined
Protocol: as §1
(§3) Adherent SW480 colon cancer cells (from the American Type Culture Collection (Manassas, Va., USA), and human nonadherent mononuclear cells from heparinized peripheral blood of a normal donor, which were purified by the Ficoll-Hypaque density gradient centrifugation technique, were used in the in vitro experiments of TMZ and MX.
The cells (5×10^6 cells) were plated in 100-mm culture dishes and treated by TMZ alone at various concentrations (0, 187, 375, 750, and 1500 μM), and together with MX (12.5 mM) for 2 hrs at 37° C. At the end of treatment, the cells were washed by either rinsing the SW480 cells on dishes (SW480) or centrifugation of the human cells in tubes with the media. […]

[5] = system: human nonadherent mononuclear cells; assay: ARP assay of AP sites in DNA from drug-treated human nonadherent mononuclear cells; format: cell-based; conditions: human nonadherent cell, 2 hrs at 37° C., MX 12.5 mM where combined
Text: as §2

[6] = system: human nonadherent mononuclear cells; assay: FARP assay of AP sites in DNA from drug-treated human nonadherent mononuclear cells; format: cell-based; conditions: human nonadherent cell, 2 hrs at 37° C., MX 12.5 mM where combined
Protocol: as §1, §3
The cells (5×10^6 cells) were plated in 100-mm culture dishes and treated by TMZ alone at various concentrations (0, 187, 375, 750, and 1500 μM), and together with MX (12.5 mM) for 2 hrs at 37° C. At the end of treatment, the cells were washed by either rinsing the SW480 cells on dishes (SW480) or centrifugation of the human cells in tubes with the media. After plating the cells in dishes with fresh media, 3 mM MX was added to the dishes that were treated with TMZ and MX together. The cells were harvested by centrifugation at […] after the treatment of 3 mM MX. […]

[7] = test compound mixed with FARP at equal concentration and volume (50 μM in 100 μL, pH 7.0)

Compound	Normalized Fluorescence Intensity % (AP-DNA [1]; relative to FARP alone = 100, equal concentration of test compound and FARP)	Fluorescence Intensity Individual Measurement (AP-DNA [1]; [7])	Fluorescence Intensity Mean (AP-DNA [1]; [7])	reversibility of the condensation reaction with aldehyde group of AP-DNA (AP-DNA [2])	ARP Assay Band Intensity/10^3 (SW480 colon cancer cells [3]; SW480, TMZ 187 μM)	ARP Assay Band Intensity/10^3 (SW480 colon cancer cells [3]; SW480, TMZ 375 μM)	ARP Assay Band Intensity/10^3 (SW480 colon cancer cells [3]; SW480, TMZ 750 μM)	FARP Assay Fluorescence Intensity/10^4 (SW480 colon cancer cells [4]; SW480, TMZ 187 μM)	FARP Assay Fluorescence Intensity/10^4 (SW480 colon cancer cells [4]; SW480, TMZ 375 μM)	FARP Assay Fluorescence Intensity/10^4 (SW480 colon cancer cells [4]; SW480, TMZ 750 μM)	ARP Assay Band Intensity/10^3 ([5]; TMZ 187 μM)	ARP Assay Band Intensity/10^3 ([5]; TMZ 375 μM)	ARP Assay Band Intensity/10^3 ([5]; TMZ 750 μM)	ARP Assay Band Intensity/10^3 ([5]; TMZ 1500 μM)	FARP Assay Fluorescence Intensity/10^4 ([6]; TMZ 187 μM)	FARP Assay Fluorescence Intensity/10^4 ([6]; TMZ 375 μM)	FARP Assay Fluorescence Intensity/10^4 ([6]; TMZ 750 μM)	FARP Assay Fluorescence Intensity/10^4 ([6]; TMZ 1500 μM)
NNC(=S)Nc1ccc(-c2c3ccc(=O)cc-3oc3cc(O)ccc23)c(C(=O)O)c1 [FARP, fluorescein-5-thiosemicarbazide]	100.0%	17080.0 and 16892.0	16986.0	irreversible	–	–	–	–	–	–	–	–	–	–	–	–	–	–
Cn1nnc2c(C(N)=O)ncn2c1=O [TMZ, 3,4-dihydro-3-methyl-4-oxoimidazo[5,1-d]-as-tetrazine-8-carboxamide]	–	–	–	–	1.420	2.723	5.233	2.428	3.691	5.310	2.201	3.524	4.352	5.844	1.622	3.138	4.201	15.77
